The target in this experiment is T1, RIPK1 (receptor-interacting protein kinase 1) (Homo sapiens, UniProt Q13546).
T1 sequence (Q13546 1-671): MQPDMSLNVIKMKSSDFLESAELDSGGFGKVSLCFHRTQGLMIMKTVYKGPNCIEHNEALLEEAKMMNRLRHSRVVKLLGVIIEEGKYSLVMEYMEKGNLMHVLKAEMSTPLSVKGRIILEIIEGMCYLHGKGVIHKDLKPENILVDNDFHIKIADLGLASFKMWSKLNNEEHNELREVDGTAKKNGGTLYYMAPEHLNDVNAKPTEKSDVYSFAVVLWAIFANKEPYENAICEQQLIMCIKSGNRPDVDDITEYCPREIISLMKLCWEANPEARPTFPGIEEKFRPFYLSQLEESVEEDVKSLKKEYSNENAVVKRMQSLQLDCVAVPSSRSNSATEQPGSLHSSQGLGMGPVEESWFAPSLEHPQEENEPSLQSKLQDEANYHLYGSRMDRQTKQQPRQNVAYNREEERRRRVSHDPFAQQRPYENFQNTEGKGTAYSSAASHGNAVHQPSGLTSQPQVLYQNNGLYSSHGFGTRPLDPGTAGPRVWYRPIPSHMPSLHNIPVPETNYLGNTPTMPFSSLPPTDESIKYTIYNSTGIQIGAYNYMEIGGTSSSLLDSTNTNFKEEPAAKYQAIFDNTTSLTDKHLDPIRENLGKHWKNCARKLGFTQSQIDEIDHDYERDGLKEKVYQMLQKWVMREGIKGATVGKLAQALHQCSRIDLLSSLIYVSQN
In words: TR-FRET saturation binding.

For orientation: Kd means the free concentration of one partner at which half of the binding sites on the other are occupied at equilibrium, for simple one-to-one binding. Higher therefore signals weaker binding. As for `Nc1ncnc2c1c(-c1ccc3c(c1)CCN3C(=O)Cc1cccc(OC(F)(F)F)c1)cn2CCCNC(=O)CCc1ccc2n1[B-](F)(F)[N+]1=C(c3ccc[nH]3)C=CC1=C2` [T2-BDP-589, T2-BODIPY-589], the affinity, expressed as Kd, was 443 nM. This counts as sub-micromolar.

The values are drawn from paper PMC12315041 (ACS medicinal chemistry letters, 2025).
